Reference: US20110150821A1, “METHODS AND CROSSLINKED POLYMER COMPOSITIONS FOR CARTILAGE REPAIR” (ANGIOTECH PHARMACEUTICALS (US), INC., priority 2004, published 2011)

Experiments:
[1] = cited from earlier work
[2] = system: Chick Chorioallantoic Membrane (CAM) vasculature; experiment: Chick chorioallantoic membrane (CAM) angiogenesis assay; details: for INHIBITION/N: 48 hours exposure; for effect on angiogenesis: 48 hours after application to the CAM
[3] = within 48 hours, depending on concentration

## O=C1c2c(O)ccc(O)c2C(=O)c2c(NCCNCCO)ccc(NCCNCCO)c21 [mitoxantrone]
[1]
  solubility in water: insoluble in water
[2]; 1 μg in methylcellulose (10 μl) disk on CAM
  INHIBITION/N: 18/24
[2]; 5 μg in methylcellulose (10 μl) disk on CAM
  INHIBITION/N: 21/24
[2]; 10 μg in methylcellulose (10 μl) disk on CAM
  INHIBITION/N: 18/22
[2]
  effect on angiogenesis: angiogenesis was inhibited
[2]; [3]
  maximal avascular zone diameter: 6 mm
  maximal avascular zone on the avascular gradient scale: 3

## CC(=O)O[C@H]1C(=O)[C@@]2(C)[C@H]([C@H](OC(=O)c3ccccc3)[C@]3(O)C[C@H](OC(=O)[C@H](O)[C@@H](NC(=O)c4ccccc4)c4ccccc4)C(C)=C1C3(C)C)[C@]1(OC(C)=O)CO[C@@H]1C[C@@H]2O [paclitaxel]
[2]
  effect on angiogenesis: angiogenesis was inhibited
[2]; [3]
  maximal avascular zone on the avascular gradient scale: 3
